Laboratory results from patent US12275706B2, “Malate salt of N-(4-{[6,7-bis(methyloxy) quinolin-4-yl]oxy}phenyl)-N′-(4-fluorophenyl)cyclopropane-1,1-dicarboxamide, and crystalline forms thereof for the treatment of cancer” (Exelixis, Inc., priority 2009, dated 2025).

Experiments:
[1] = Salt screen: salt formation, crystallinity, hygroscopicity and other data; settings: Table 1
[2] = Solid state stability on exposure to high humidity and temperature; assay type: physicochemical
Description: Other solid state properties which may be used to characterize the crystalline N-1 forms of Compounds (I) and (II) are shown in the figures and discussed in the examples below.

[3] = Karl Fischer water analysis; assay type: physicochemical; settings: correlates with TGA and GVS
Method: (§1) The amount of water taken up was calculated at about 0.60 wt % at 90% RH. […] The amount of water associated with this salt was calculated at about 0.5 wt % by Karl Fischer analysis and correlates with TGA and GVS analysis.

[4] = DSC/TGA thermal stability; assay type: physicochemical
Method: as §1
The TGA measurements were performed in a TA Instruments™ model Q500 or 2950, employing an open pan setup. The sample (about 10-30 mg) was placed in a platinum pan previously tared. The weight of the sample was measured accurately and recorded to a thousand of a milligram by the instrument. The furnace was purged with nitrogen gas at 100mL/min. Data were collected between room temperature and 300° C. at 10° C./min heating rate.
DSC measurements were performed in a TA Instruments™ model Q2000, Q1000 or 2920, employing an open pan setup. The sample (about 2-6 mg) was weighed in an aluminum pan and recorded accurately recorded to a hundredth of a milligram, and transferred to the DSC. The instrument was purged with nitrogen gas at 50 mL/min. Data were collected between room temperature and 300° C. at 10° C./min heating rate. The plot was made with the endothermic peaks pointing down.

[5] = Water solubility of free base and salts (salt screen); settings: for Solubility: water, 10 mg solids per mL water
[6] = Storage stability at controlled temperature/relative humidity; assay type: physicochemical
[7] = Moisture sorption (water uptake); assay type: physicochemical
Method: as §1
Moisture sorption isotherms were collected in a VTI SGA-100 Symmetric Vapor Analyzer using approximately 10 mg of sample. The sample was dried at 60° C. until the loss rate of 0.0005 wt %/min was obtained for 10 minutes. The sample was tested at 25° C. and 3 or 4, 5, 15, 25, 35, 45, 50, 65, 75, 85, and 95% RH. Equilibration at each RH was reached when the rate of 0.0003 wt %/min for 35 minutes was achieved or a maximum of 600 minutes.

physchem = settings: water, thermodynamic from solid

## CC(=O)O [Acetate]
[1]
  other data relating to the free base and each salt (salt formation, crystallinity, hygroscopicity, remarks): no salt formation; mixture of free base and acid

## C1=Cc2cccc(OC[C@H]3CNCCO3)c2C1.O=S(=O)(O)c1ccccc1 [Benzenesulfonate]
[1]
  other data relating to the free base and each salt (salt formation, crystallinity, hygroscopicity, remarks): Crystalline Salt; possible sulfonic acid formation

## Cl [Chloride]
[1]
  other data relating to the free base and each salt (salt formation, crystallinity, hygroscopicity, remarks): Crystalline but Hygroscopic; possible hydrate
[2]; high humidity (75% humidity) and high temperature (40° C.)
  moisture sensitivity, phase: undesirable moisture sensitivity, changing phase

## COc1cc2nccc(Oc3ccc(NC(=O)C4(C(=O)Nc5ccc(F)cc5)CC4)cc3)c2cc1OC.O=C(O)C[C@H](O)C(=O)O [Compound (I), N-(4-{[6,7-bis(methyloxy)quinolin-4-yl]oxy}phenyl)-N′-(4-fluorophenyl)cyclopropane-1,1-dicarboxamide, (L) Malate Salt]
[3]
  amount of water associated with the salt: about 0.5 wt %
[4]
  solvent losses (DSC/TGA): No solvent losses were observed
  stable up to (DSC/TGA): up to 185 °C
[5]
  solubility (in words): sufficient solubility for use in a pharmaceutical composition
  Solubility: 59 µg/mL
[2]; 75% RH at 40° C. for 1 week
  solid state phase and degree of crystallinity: remained unchanged
[6]; 25° C./60% relative humidity (RH)
  change in assay, purity, moisture and dissolution: no change in assay, purity, moisture and dissolution
[6]; 40° C./60% RH
  change in assay, purity, moisture and dissolution: no change in assay, purity, moisture and dissolution
[7]
  uptake of water, reversibility: reversible with a slight hysteresis
[7]; at 90% RH
  amount of water taken up: about 0.60 wt %

## COc1cc2nccc(Oc3ccc(NC(=O)C4(C(=O)Nc5ccc(F)cc5)CC4)cc3)c2cc1OC [Free base, N-(4-{[6,7-bis(methyloxy)quinolin-4-yl]oxy}phenyl)-N′-(4-fluorophenyl)cyclopropane-1,1-dicarboxamide]
[1]
  other data relating to the free base and each salt (salt formation, crystallinity, hygroscopicity, remarks): very low solubility
physchem
  Solubility: < 1 µg/mL

## O=S(=O)(O)O [Sulfate]
[1]
  other data relating to the free base and each salt (salt formation, crystallinity, hygroscopicity, remarks): Crystalline salt, low solubility

## Benzoate
[1]
  other data relating to the free base and each salt (salt formation, crystallinity, hygroscopicity, remarks): no salt formation; mixture of free base and acid

## Fumarate
[1]
  other data relating to the free base and each salt (salt formation, crystallinity, hygroscopicity, remarks): Crystalline Salt, low solubility

## L-Lactate
[1]
  other data relating to the free base and each salt (salt formation, crystallinity, hygroscopicity, remarks): Amorphous, salt

## Malonate
[1]
  other data relating to the free base and each salt (salt formation, crystallinity, hygroscopicity, remarks): Crystalline salt, low solubility

## Phosphate
[1]
  other data relating to the free base and each salt (salt formation, crystallinity, hygroscopicity, remarks): Crystalline but Hygroscopic.
[5]
  Solubility: 26 µg/mL
[7]; highest among the salts tested
  weight gain due to absorption of H2O: 8%

## Tosylate
[1]
  other data relating to the free base and each salt (salt formation, crystallinity, hygroscopicity, remarks): Crystalline salt, low solubility
[5]
  Solubility: 7 µg/mL
